Source: ChEMBL document CHEMBL3885861, “Open TG-GATES”

Species on record: Rattus norvegicus
Assay: Open TG-GATES - Regimen: Daily Repeat
Format: toxicity, organism-based, Sprague-Dawley
Set-up: regimen Daily Repeat, gender Male, age 6 weeks
Conditions: in vivo, po, 0 mg/kg, route gavage, dose level Control; for APTT / Bas / Eos / Fbg / Hb / Ht / Lym / MCH / MCHC / MCV / Mono / Neu / PT / Plat / RBC / Ret / WBC: tissue Blood
[1] = 72 h, tissue Kidney, time 3 day
[2] = 72 h, tissue Plasma, time 3 day

`Cn1cnc([N+](=O)[O-])c1Sc1ncnc2nc[nH]c12` [AZATHIOPRINE] showed a TERMINAL_BW (72 h, time 3 day) of 200.7 g, an APTT (72 h, time 3 day) of 21.5 s and a Bas (72 h, time 3 day) of 0%. For the same compound, the Eos (72 h, time 3 day) was 0.8%, the Fbg (72 h, time 3 day) was 305.2 mg/dL and the Hb (72 h, time 3 day) was 13.5 g/dL. For the same compound, the Ht (72 h, time 3 day) was 39.8%, the Lym (72 h, time 3 day) was 80.4% and the MCH (72 h, time 3 day) was 21.4 pg. For the same compound, the MCHC (72 h, time 3 day) was 33.8%, the MCV (72 h, time 3 day) was 63.1 fL and the Mono (72 h, time 3 day) was 2.2%. It also gave a Neu (72 h, time 3 day) of 15.4%, a PT (72 h, time 3 day) of 16.3 s and a Plat (72 h, time 3 day) of 129.4 x10_4/uL. For the same compound, the RBC (72 h, time 3 day) was 630.8 x10_4/ul, the Ret (72 h, time 3 day) was 8% and the WBC (72 h, time 3 day) was 91.1 x10_2/uL. For the same compound, the KIDNEY_L [1] was 0.9 g, the KIDNEY_R [1] was 0.9 g and the KIDNEY_TOTAL [1] was 1.8 g. It also gave an LIVER (72 h, tissue Liver, time 3 day) of 9.6 g, an A/G [2] of 1.2 and an ALP [2] of 1684.4 IU/L. For the same compound, the ALT [2] was 44.2 IU/L, the AST [2] was 69.2 IU/L and the BUN [2] was 16.6 mg/dL. It also gave a CRE [2] of 0.1 mg/dL, a Ca [2] of 11.2 mg/dL and a Cl [2] of 105.8 meq/L. For the same compound, the DBIL [2] was 0 mg/dL, the GLC [2] was 194.4 mg/dL and the IP [2] was 7.2 mg/dL. The K [2] was 3.9 meq/L, the LDH [2] was 220.4 IU/L and the Na [2] was 144 meq/L. The PL [2] was 157.8 mg/dL, the RALB [2] was 3 g/dL and the TBIL [2] was 0.006 mg/dL. It also gave a TC [2] of 79.8 mg/dL, a TG [2] of 115.6 mg/dL and a TP [2] of 5.5 g/dL. It also gave a gamma-GTP [2] of 1 IU/L, a TERMINAL_BW ([…], time 7 day) of 246.2 g and a TERMINAL_BW ([…], time 14 day) of 269.5 g. For the same compound, the TERMINAL_BW ([…], time 28 day) was 356.1 g, the APTT ([…], time 7 day) was 21.9 s and the Bas ([…], time 7 day) was 0%. It also gave an Eos ([…], time 7 day) of 0.8%, a Fbg ([…], time 7 day) of 327.8 mg/dL and a Hb ([…], time 7 day) of 13.8 g/dL. It also gave a Ht ([…], time 7 day) of 39.8%, a Lym ([…], time 7 day) of 77.4% and an MCH ([…], time 7 day) of 21.9 pg. The MCHC ([…], time 7 day) was 34.7%, the MCV ([…], time 7 day) was 63 fL and the Mono ([…], time 7 day) was 2.4%. The Neu ([…], time 7 day) was 18.2%, the PT ([…], time 7 day) was 15.8 s and the Plat ([…], time 7 day) was 123.7 x10_4/uL. It also gave an RBC ([…], time 7 day) of 631.4 x10_4/ul, a Ret ([…], time 7 day) of 6.8% and a WBC ([…], time 7 day) of 129.6 x10_2/uL. For the same compound, the APTT ([…], time 14 day) was 22.4 s, the Bas ([…], time 14 day) was 0% and the Eos ([…], time 14 day) was 0.8%. For the same compound, the Fbg ([…], time 14 day) was 309 mg/dL, the Hb ([…], time 14 day) was 14.9 g/dL and the Ht ([…], time 14 day) was 41.2%. The Lym ([…], time 14 day) was 87%, the MCH ([…], time 14 day) was 21.4 pg and the MCHC ([…], time 14 day) was 36.1%. The MCV ([…], time 14 day) was 59.4 fL, the Mono ([…], time 14 day) was 1.4% and the Neu ([…], time 14 day) was 10%. The PT ([…], time 14 day) was 16.9 s, the Plat ([…], time 14 day) was 103.8 x10_4/uL and the RBC ([…], time 14 day) was 694.4 x10_4/ul. The Ret ([…], time 14 day) was 4%, the WBC ([…], time 14 day) was 113.3 x10_2/uL and the APTT ([…], time 28 day) was 23.7 s. It also gave a Bas ([…], time 28 day) of 0%, an Eos ([…], time 28 day) of 1% and a Fbg ([…], time 28 day) of 314.8 mg/dL. The Hb ([…], time 28 day) was 15.3 g/dL and the Ht ([…], time 28 day) was 44.8%.
